Assay results reported in patent US20200000843A1, “COMPOSITION FOR IMPROVEMENT OR PREVENTION OF PARKINSONIAN SYNDROME” (MiZ Company Limited, priority 2018, published 2020).
Where two headings read alike, the source gives them in different places.

Legend:
[1] = compared with H2; cited from earlier work
[2] = system: Parkinson's disease patient
Method: A Parkinson's disease patient (medical history: about 8 years) inhaled a mixed gas of hydrogen and air using a gaseous hydrogen inhalation apparatus (MHG-2000α (registered trademark); MiZ Company Limited) for about 90 minutes per day over about 2 months. Here, the mixed gas was inhaled every 2 or 3 days over first about 3 weeks and every day over subsequent about 5 weeks. The hydrogen concentration in MHG-2000α is about 6.0 to 7.0% by volume (hydrogen generation rate: about 140 ml/min).
A Parkinson's disease patient one (medical history: about 6 years) inhaled a mixed gas of hydrogen and air using a gaseous hydrogen inhalation apparatus (MHG-2000α (registered trademark); MiZ Company Limited) for about 90 minutes or about 120 minutes per day. Here, the mixed gas was inhaled every day over about 4.5 months. The hydrogen concentration in MHG-2000α is about 6.0 to 7.0% by volume (hydrogen generation rate: about 140 ml/min).

[3] = system: Parkinson's disease patient; remark: listed apart in the source
[4] = system: patient with multiple system atrophy; assay: Hydrogen water ingestion / hydrogen gas inhalation by a patient with multiple system atrophy (Case 3); type: in vivo, human; conditions: about 6.0 to 7.0% hydrogen, about 1.5 to about 2 hours every day, early stage after the start of the inhalation
Method: The hydrogen concentration in MHG-2000α is about 6.0 to 7.0% (hydrogen generation rate: about 140 ml/min).

[5] = system: Parkinson's disease model rat; conditions: cited from earlier work
[6] = Case 1, first inhalation for 90 minutes, about 6.0 to 7.0% by volume hydrogen
[7] = Case 2, about 4 months after the start of inhalation
[8] = Case 2, immediately after inhalation for about 90 or about 120 minutes per day, substantially every day over about 1 month

In the case of `[2H][2H]` [D2, deuterium], the superoxide scavenging effect [1] is given as “higher than that of H2”.

For `[HH]` [hydrogen gas, molecular hydrogen], the “posture forward-bending in a dogleg shape” value ([2]; Case 1, 90 minutes after the start of first inhalation) was “improved to a middle between the upright state and the dogleg shape state”, the “complexion, voice, movement, gait and the like” value ([2]; Case 1, about 6.0 to 7.0% by volume hydrogen, about 90 minutes per day over about 2 months) was “improved to be almost comparable to a healthy person” and the “time after start of inhalation at which shaking of hands was stopped” value [2, 6] was “about 30 minutes”. For the same compound, the “time after start of inhalation at which shaking under the jaw was stopped” value [2, 6] was “about 40 minutes”, the “time after start of inhalation at which shaking of the hands was stopped” value ([2]; Case 2 (person one), first inhalation, about 6.0 to 7.0% by volume hydrogen) was “about 45 minutes” and the “bending of the spine” value [2, 7] was “reduced as compared to the symptom in the early stage”. The “shaking of the hands and the mouth” value [2, 7] was “too small to be recognized unless a careful observation is made”, the “time taken for fastening buttons of clothing and for change of clothes” value [2, 7] was “markedly shortened” and the “bending of the waist compared to before the inhalation” value ([2]; Case 2, about 90 minutes after the start of first inhalation) was “improved”. The “time after start of inhalation at which shaking of the mouth was stopped” value ([2]; Case 2, first inhalation, about 6.0 to 7.0% by volume hydrogen) was “about 55 minutes”, the forward-bending posture [2, 8] was “improved to a reasonably upright state” and the “shaking of the hands and legs” value [2, 8] was “did not shake, or shook slightly”. For the same compound, the “shaking of the mouth” value [2, 8] was “shook slightly”, the “action tremors, VAS scale values of 0 to 5.0” value ([3]; Case 4, about 4% by volume hydrogen, about 20 minutes every day over 3 months, FIG. 1A) was “evidently improved” and the “slowness of movement, VAS scale values of 0 to 5.0” value ([3]; Case 4, about 4% by volume hydrogen, about 20 minutes every day over 3 months, FIG. 1B) was “evidently improved”. The “tiny step gait, VAS scale values of 0 to 5.0” value ([3]; Case 4, about 4% by volume hydrogen, about 20 minutes every day over 3 months, FIG. 1C) was “evidently improved”, the “slowness of movement, VAS scale values of 0 to 5.0” value ([3]; Case 5, about 6.0 to 7.0% by volume hydrogen, about 1 to 3 hours every day over 3 months, FIG. 2A) was “evidently improved” and the “forward-bending posture, VAS scale values of 0 to 5.0” value ([3]; Case 5, about 6.0 to 7.0% by volume hydrogen, about 1 to 3 hours every day over 3 months, FIG. 2B) was “evidently improved”. The “rigidity, VAS scale values of 0 to 5.0” value ([3]; Case 5, about 6.0 to 7.0% by volume hydrogen, about 1 to 3 hours every day over 3 months, FIG. 2C) was “evidently improved”, the “bowel movement (constipation), VAS scale values of 0 to 5.0” value ([3]; Case 5, about 6.0 to 7.0% by volume hydrogen, about 1 to 3 hours every day over 3 months, FIG. 2E) was “evidently improved” and the “sleep (insomnia), VAS scale values of 0 to 5.0” value ([3]; Case 5, about 6.0 to 7.0% by volume hydrogen, about 1 to 3 hours every day over 3 months, FIG. 2F) was “evidently improved”. For the same compound, the “tiny step gait, VAS scale values of 0 to 5.0” value ([3]; Case 5, over three months after the start of inhalation, FIG. 2D legend) was “improvements”, the gait [4] was “became able to walk steadily and without support” and the advancement of symptoms ([5]; hydrogen gas (2%) continuously breathed) was “the symptoms were advanced”. The advancement of symptoms ([5]; hydrogen gas (2%) intermittently breathed) was “slightly lessened”.
